In US8367087B2, “Soil amendment compositions and methods for using the same” (priority 1998, dated 2013):

System: J2 larvae of the Root Knot Nematode (Meloidogyne incognita)
Assay: Touch response of J2 larvae after 24 hours exposure to predisposing agents
Type: in vivo
Description: The merits of alternative predisposing agents were examined by subjecting J2 larvae of the Root Knot Nematode (Meloidogyne incognita) to solutions of lignosulfonate and gallic acid. J2 larvae were exposed 24 hours to various concentrations of the materials in shallow 50 ml beakers. Following exposure, nematodes were inspected for activity level using touch response: […]

O=C(O)c1cc(O)c(O)c(O)c1 [Gal Ac, Gallic Acid]
Control % (5 ppm): 30.7% | active, responding nematodes per total examined (viable/total), Mean (5 ppm): 312/450 | active, responding nematodes per total examined (viable/total), Replication 1 (5 ppm): 305/462 | active, responding nematodes per total examined (viable/total), Replication 2 (5 ppm): 316/440 | active, responding nematodes per total examined (viable/total), Replication 3 (5 ppm): 326/447 | active, responding nematodes per total examined (viable/total), Replication 4 (5 ppm): 302/450 | active, responding nematodes per total examined (viable/total), Total (5 ppm): 1249/1799 | Control % (25 ppm): 47.7% | active, responding nematodes per total examined (viable/total), Mean (25 ppm): 239/457 | active, responding nematodes per total examined (viable/total), Replication 1 (25 ppm): 250/458 | active, responding nematodes per total examined (viable/total), Replication 2 (25 ppm): 248/449 | active, responding nematodes per total examined (viable/total), Replication 3 (25 ppm): 232/459 | active, responding nematodes per total examined (viable/total), Replication 4 (25 ppm): 225/462 | active, responding nematodes per total examined (viable/total), Total (25 ppm): 955/1828 | Control % (100 ppm): 60.9% | active, responding nematodes per total examined (viable/total), Mean (100 ppm): 176/450 | active, responding nematodes per total examined (viable/total), Replication 1 (100 ppm): 193/450 | active, responding nematodes per total examined (viable/total), Replication 2 (100 ppm): 185/448 | active, responding nematodes per total examined (viable/total), Replication 3 (100 ppm): 176/436 | active, responding nematodes per total examined (viable/total), Replication 4 (100 ppm): 150/464 | active, responding nematodes per total examined (viable/total), Total (100 ppm): 704/1798 | Control % (1000 ppm): 92.7% | active, responding nematodes per total examined (viable/total), Mean (1000 ppm): 33/452 | active, responding nematodes per total examined (viable/total), Replication 1 (1000 ppm): 25/449 | active, responding nematodes per total examined (viable/total), Replication 2 (1000 ppm): 39/444 | active, responding nematodes per total examined (viable/total), Replication 3 (1000 ppm): 40/454 | active, responding nematodes per total examined (viable/total), Replication 4 (1000 ppm): 27/460 | active, responding nematodes per total examined (viable/total), Total (1000 ppm): 131/1807
